Experimental data published in patent US9920069B2, “Compounds for treatment of fluoroquinolone-resistant bacteria” (The Board of Trustees of the University of Illinois, priority 2014, dated 2018).
Converted amounts (≈) assume the structure as drawn. Read-outs that look alike come from different tables or passages of the source.

Assays:
physchem = conditions: pH 7.4 PBS; three replicates ± SEM
Experimental: Enough PBS was added to make a 1 mg/mL solution. Compounds were then assessed by LC-MS and compared to a calibration curve to determine the solubility. […] Data shown is from three independent replicates±SEM. […] Between DMSO additions, the vial was vortexed and sonicated.
The compound was vortexed for ˜30 seconds before being placed into a bath sonicator (Cole Parmer, ultrasonic cleaner) for 1 h. […] The tubes were vortexed again for 30 s before being centrifuged at maximum speed (13,000×g) for 10 minutes. The supernatant was then filtered through a 0.22 μm syringe filter (Millipore Millex MP). […] Three independent replicates of each compound were performed. A calibration curve for each compound was generated from 1-400 μM by dissolving the compound in DMSO and making dilutions of the stock in DMSO. […] The concentration of the samples was calculated based on the calibration curves.

A. baumannii ATCC 19606 = test: microbe, parasite or virus in culture; format: cell-based; conditions: Acinetobacter baumannii, ATCC19606, gyrA none, parC none
Experimental: (§1) E. coli MG1655 and the ΔAcrB strain were obtained from Prof. Cari Vanderpool at UIUC.
(§2) Susceptibility testing was performed in triplicate using the microdilution broth method as outlined by the Clinical and Laboratory Standards Institute CLSI^52. MH broth was used.

E. coli ATCC 25922 = test: microbe, parasite or virus in culture; format: cell-based; conditions: Escherichia coli, ATCC25922, gyrA none, parC none
Experimental: as §1, §2

P. aeruginosa PAO1 = test: microbe, parasite or virus in culture; format: cell-based; conditions: Pseudomonas aeruginosa, gyrA none, parC none
Experimental: as §1, §2

PA1586 = test: MIC, microdilution broth; format: cell-based, P. aeruginosa; conditions: Pseudomonas aeruginosa
Experimental: as §1, §2

[1] = test system: MRSA clinical isolate SAU.489; test: microbe, parasite or virus in culture; format: cell-based, S. aureus; conditions: Staphylococcus aureus, read-out: MIC
Experimental: as §2

[2] = test system: MRSA clinical isolate SAU.491; test: microbe, parasite or virus in culture; format: cell-based, S. aureus; conditions: Staphylococcus aureus, read-out: MIC
Experimental: as §2

[3] = test system: MRSA clinical isolate SAU.492; test: microbe, parasite or virus in culture; format: cell-based, S. aureus; conditions: Staphylococcus aureus, read-out: MIC
Experimental: as §2

[4] = test system: MRSA clinical isolate SAU.493; test: microbe, parasite or virus in culture; format: cell-based, S. aureus; conditions: Staphylococcus aureus, read-out: MIC
Experimental: as §2

[5] = test system: MRSA clinical isolate SAU.494; test: microbe, parasite or virus in culture; format: cell-based, S. aureus; conditions: Staphylococcus aureus, read-out: MIC
Experimental: as §2

[6] = test system: MRSA clinical isolate SAU.495; test: microbe, parasite or virus in culture; format: cell-based, S. aureus; conditions: Staphylococcus aureus, read-out: MIC
Experimental: as §2

[7] = test system: MRSA clinical isolate SAU.496; test: microbe, parasite or virus in culture; format: cell-based, S. aureus; conditions: Staphylococcus aureus, read-out: MIC
Experimental: as §2

[8] = test system: MRSA clinical isolate SAU.708; test: microbe, parasite or virus in culture; format: cell-based, S. aureus; conditions: Staphylococcus aureus, read-out: MIC
Experimental: as §2

[9] = test system: MRSA clinical isolate SAU.709; test: microbe, parasite or virus in culture; format: cell-based, S. aureus; conditions: Staphylococcus aureus, read-out: MIC
Experimental: as §2

[10] = test system: MRSA clinical isolate SAU.710; test: microbe, parasite or virus in culture; format: cell-based, S. aureus; conditions: Staphylococcus aureus, read-out: MIC
Experimental: as §2

Enterococcus ATCC 29212 = test: organism not typed; format: cell-based, E. faecalis; conditions: ATCC 29212, E. faecalis, gyrA WT, parC WT
Enterococcus ATCC 19433 = test: organism not typed; format: cell-based, E. faecalis; conditions: ATCC 19433, E. faecalis; gyrA WT, parC WT; read-out: MIC
[11] = test system: VRE clinical isolate C21190; test: organism not typed; format: cell-based, E. faecium
Experimental: (§3) QRDR mutations were determined as described in the text using primers (primer sequences can be found in Table 7).
as §2

[12] = test system: VRE clinical isolate C27282; test: organism not typed; format: cell-based, E. faecium
Experimental: as §3, §2

[13] = test system: VRE clinical isolate S226; test: organism not typed; format: cell-based, E. faecium
Experimental: as §3, §2

[14] = test system: VRE clinical isolate S235; test: organism not typed; format: cell-based, E. faecium
Experimental: as §3, §2

VRE clinical isolate S34 = test: organism not typed; format: cell-based, E. faecium
Experimental: as §3, §2

VRE clinical isolate S51 = test: organism not typed; format: cell-based, E. faecium
Experimental: as §3, §2

[15] = test system: VRE clinical isolate U275; test: organism not typed; format: cell-based, E. faecium
Experimental: as §3, §2

[16] = test system: VRE clinical isolate U464; test: organism not typed; format: cell-based, E. faecium
Experimental: as §3, §2

[17] = test system: VRE clinical isolate U503; test: organism not typed; format: cell-based, E. faecium
Experimental: as §3, §2

[18] = test system: VRE clinical isolate U563; test: organism not typed; format: cell-based, E. faecium
Experimental: as §3, §2

VRE clinical isolate U63 = test: organism not typed; format: cell-based, E. faecium
Experimental: as §3, §2

[19] = test system: VRE clinical isolate C28036; test: microbe, parasite or virus in culture; format: cell-based, Ent. Spp.; conditions: Enterococcus
Experimental: as §3, §2

in vivo = conditions: female, C57BL/6, mouse, po
Experimental: As a prelude to exploring in vivo efficacy, the toxicity and pharmacokinetic profile of DNM and key derivatives was evaluated.
The animal studies (PK, in vivo toxicity and in vivo efficacy) were carried out in strict accordance with the recommendations in the Guide for the Care and Use of Laboratory Animals of the National Institutes of Health. […] In these studies, 10-12 week old female C57BL/6 mice purchased from Charles River were used. DNM, DNM-2, and DNM-3 were formulated as slurries at 8.3 mg mL^−1 in 25% Cremophor RH40/water (v/v). Before beginning the pharmacokinetic assessment, mice were first tested for their ability to tolerate the DNM, DNM-2, and DNM-3 at 50 mg kg^−1 (p.o.). […] . At specified time points, mice were sacrificed and blood was collected, centrifuged, and the serum was frozen at −80° C. until analysis. The proteins in a 50 μL aliquot of serum were precipitated by the addition of 50 μL of acetonitrile and the sample was centrifuged to remove the proteins. Serum concentrations of DNM, DNM-2, and DNM-3 were determined by HPLC. PK parameters were determined using GraphPad Prism Version 5.00 for Windows.

Cc1cc(=O)n(C)c2c3c4c(cc12)c(C)cc(=O)n4CO3 [DNM, deoxynybomycin]
Solubility in pH 7.4 PBS (physchem): 9 μM
MIC (A. baumannii ATCC 19606): > 4 µg/mL
MIC (E. coli ATCC 25922): > 4 µg/mL
MIC (P. aeruginosa PAO1): > 4 µg/mL
MIC (PA1586): > 4 µg/mL
MIC [1]: 0.031 µg/mL (≈ 0.11 µM)
MIC [2]: 0.125 µg/mL (≈ 0.443 µM)
MIC [3]: 0.063 µg/mL (≈ 0.223 µM)
MIC [4]: 0.063 µg/mL (≈ 0.223 µM)
MIC [5]: 0.063 µg/mL (≈ 0.223 µM)
MIC [6]: 0.063 µg/mL (≈ 0.223 µM)
MIC [7]: 0.063 µg/mL (≈ 0.223 µM)
MIC [8]: 0.063 µg/mL (≈ 0.223 µM)
MIC [9]: 0.063 µg/mL (≈ 0.223 µM)
MIC [10]: 0.031 µg/mL (≈ 0.11 µM)
MIC (Enterococcus ATCC 29212): >1 µg/mL
MIC (Enterococcus ATCC 29212; read-out: MIC): > 1 µg/mL
MIC (Enterococcus ATCC 19433): > 1 µg/mL
MIC [11]: > 1 µg/mL
MIC [12]: > 1 µg/mL
MIC [13]: 0.25 µg/mL (≈ 0.886 µM)
MIC [14]: 0.125 µg/mL (≈ 0.443 µM)
MIC (VRE clinical isolate S34): 1 µg/mL (≈ 3.54 µM)
MIC (VRE clinical isolate S51): 0.25 µg/mL (≈ 0.886 µM)
MIC [15]: 1 µg/mL (≈ 3.54 µM)
MIC [16]: 1 µg/mL (≈ 3.54 µM)
MIC [17]: > 1 µg/mL
MIC [18]: > 1 µg/mL
MIC (VRE clinical isolate U63): 1 µg/mL (≈ 3.54 µM)
MIC [19]: 0.25 µg/mL (≈ 0.886 µM)
MTD (in vivo): > 50 mg/kg

CCn1c(=O)cc(C)c2cc3c(C)cc(=O)n4c3c(c21)OC4 [DNM-2]
Solubility in pH 7.4 PBS (physchem): 121 μM
MIC (A. baumannii ATCC 19606): > 24 µg/mL
MIC (E. coli ATCC 25922): > 24 µg/mL
MIC (P. aeruginosa PAO1): > 24 µg/mL
MIC (PA1586): > 24 µg/mL
MIC [1]: 0.125 µg/mL (≈ 0.422 µM)
MIC [2]: 0.125 µg/mL (≈ 0.422 µM)
MIC [3]: 0.125 µg/mL (≈ 0.422 µM)
MIC [4]: 0.125 µg/mL (≈ 0.422 µM)
MIC [5]: 0.125 µg/mL (≈ 0.422 µM)
MIC [6]: 0.125 µg/mL (≈ 0.422 µM)
MIC [7]: 0.125 µg/mL (≈ 0.422 µM)
MIC [8]: 0.125 µg/mL (≈ 0.422 µM)
MIC [9]: 0.125 µg/mL (≈ 0.422 µM)
MIC [10]: 0.063 µg/mL (≈ 0.213 µM)
MIC (Enterococcus ATCC 29212; read-out: MIC): 8 µg/mL (≈ 27 µM)
MIC (Enterococcus ATCC 19433): 8 µg/mL (≈ 27 µM)
MIC [11]: 8 µg/mL (≈ 27 µM)
MIC [12]: 4 µg/mL (≈ 13.5 µM)
MIC [13]: 0.5 µg/mL (≈ 1.69 µM)
MIC [14]: 0.5 µg/mL (≈ 1.69 µM)
MIC (VRE clinical isolate S34): 1 µg/mL (≈ 3.37 µM)
MIC (VRE clinical isolate S51): 0.5 µg/mL (≈ 1.69 µM)
MIC [15]: 2 µg/mL (≈ 6.75 µM)
MIC [16]: 2 µg/mL (≈ 6.75 µM)
MIC [17]: 4 µg/mL (≈ 13.5 µM)
MIC [18]: 2 µg/mL (≈ 6.75 µM)
MIC (VRE clinical isolate U63): 4 µg/mL (≈ 13.5 µM)
MIC [19]: 0.5 µg/mL (≈ 1.69 µM)
MTD (in vivo): > 50 mg/kg
